Patent publication US20260015350A1, “AZAQUINAZOLINE PAN-KRAS INHIBITORS” (Mirati Therapeutics, Inc., priority 2022, published 2026)

How the values were obtained:
[1] = molecular target: T1, KRas^WT (Homo sapiens, UniProt P01116); assay: KRas binding assay (TR-FRET tracer displacement), KRas WT; conditions: for IC50: TR-FRET tracer displacement, KRas WT; for inhibition at 0.01 µM: single point, 10 nM compound, TR-FRET
T1 construct: Biotinylated KRas (corresponding to amino acids 1-169, produced at Accelegan Inc.); biotin (biotinylated); purchased Accelegan Inc

[2] = molecular target: T2, KRas^G12R (Homo sapiens, UniProt P01116, G12R); assay: KRas binding assay (TR-FRET tracer displacement), KRas G12R
T2 construct: Biotinylated KRas (corresponding to amino acids 1-169, produced at Accelegan Inc.); biotin (biotinylated); purchased Accelegan Inc

[3] = molecular target: T3, KRas^Q61H (Homo sapiens, UniProt P01116, Q61H); assay: KRas binding assay (TR-FRET tracer displacement), KRas Q61H; conditions: for IC50: TR-FRET tracer displacement, KRas Q61H; for inhibition at 0.01 µM: single point, 10 nM compound, TR-FRET
T3 construct: Biotinylated KRas (corresponding to amino acids 1-169, produced at Accelegan Inc.); biotin (biotinylated); purchased Accelegan Inc

[4] = molecular target: T4, KRas^G12V (Homo sapiens, UniProt P01116, G12V); assay: KRas binding assay (TR-FRET tracer displacement), KRas G12V
T4 construct: Biotinylated KRas (corresponding to amino acids 1-169, produced at Accelegan Inc.); biotin (biotinylated); purchased Accelegan Inc

[5] = molecular target: T5, KRas^G13D (Homo sapiens, UniProt P01116, G13D); assay: KRas binding assay (TR-FRET tracer displacement), KRas G13D; conditions: for IC50: TR-FRET tracer displacement, KRas G13D; for inhibition at 0.01 µM: single point, 10 nM compound, TR-FRET
T5 construct: Biotinylated KRas (corresponding to amino acids 1-169, produced at Accelegan Inc.); biotin (biotinylated); purchased Accelegan Inc

[6] = molecular target: T6, KRas^G12D (Homo sapiens, UniProt P01116, G12D); assay: KRas binding assay (TR-FRET tracer displacement), KRas G12D
T6 construct: Biotinylated KRas (corresponding to amino acids 1-169, produced at Accelegan Inc.); biotin (biotinylated); purchased Accelegan Inc

[7] = system: KRas-mediated phosphorylation of ERK in A549 cells; assay: Inhibition of KRas-mediated phosphorylation of ERK (Cisbio HTRF pERK), A549 cells; format: cell-based; conditions: Homo sapiens, HTRF pERK
In short: (§1)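 Following a 3-hr exposure of cells to serially diluted compound (from 10 uM, 3-fold, 10 doses), cold lysis for 40 mins preceded a 2-hr room-temperature HTRF immunoassay for phosphorylated ERK.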

[8] = system: KRas-mediated phosphorylation of ERK in AsPC-1 cells; assay: Inhibition of KRas-mediated phosphorylation of ERK (Cisbio HTRF pERK), AsPC-1 cells; format: cell-based; conditions: Homo sapiens, ASPC1, AsPC-1 cells; HTRF pERK
In short: (§2)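 HTRF readout of phospho-ERK in cell lysates after 3 hrs of compound exposure. Dosing: 10 uM top, 3-fold steps, 10 doses, final DMSO 0.8%. Min control: 0.2 uM Trametinib. Lysis ran 40 mins at 4° C, and antibody detection 2 hrs at room temperature.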

[9] = system: KRas-mediated phosphorylation of ERK in MKN1 cells; assay: Inhibition of KRas-mediated phosphorylation of ERK (Cisbio HTRF pERK), MKN1 cells; format: cell-based; conditions: Homo sapiens, MKN-1
In short: (§3)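 HTRF pERK read-out; 6,000 cells/well, RPMI_10% FBS, overnight 37° C./5% CO2; 4 h covered incubation at RT before reading.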

[10] = system: KRas-mediated phosphorylation of ERK in PSN1 cells; assay: Inhibition of KRas-mediated phosphorylation of ERK (Cisbio HTRF pERK), PSN1 cells; format: cell-based; conditions: Homo sapiens
In short: as §3

[11] = molecular target: T7, KRas^G12A (Homo sapiens, UniProt P01116, G12A); assay: KRas binding assay (TR-FRET tracer displacement), KRas G12A; conditions: for IC50: TR-FRET tracer displacement, KRas G12A; for inhibition at 0.01 µM: single point, 10 nM compound, TR-FRET
T7 construct: Biotinylated KRas (corresponding to amino acids 1-169, produced at Accelegan Inc.); biotin (biotinylated); purchased Accelegan Inc

[12] = molecular target: T8, KRas^G12C (Homo sapiens, UniProt P01116, G12C); assay: KRas binding assay (TR-FRET tracer displacement), KRas G12C; conditions: for IC50: TR-FRET tracer displacement, KRas G12C; for inhibition at 0.01 µM: single point, 10 nM compound, TR-FRET
T8 construct: Biotinylated KRas (corresponding to amino acids 1-169, produced at Accelegan Inc.); biotin (biotinylated); purchased Accelegan Inc

[13] = molecular target: T9, KRas^G12S (Homo sapiens, UniProt P01116, G12S); assay: KRas binding assay (TR-FRET tracer displacement), KRas G12S; conditions: for IC50: TR-FRET tracer displacement, KRas G12S; for inhibition at 0.01 µM: single point, 10 nM compound, TR-FRET
T9 construct: Biotinylated KRas (corresponding to amino acids 1-169, produced at Accelegan Inc.); biotin (biotinylated); purchased Accelegan Inc

[14] = system: KRas-mediated phosphorylation of ERK in H727 cells; assay: Inhibition of KRas-mediated phosphorylation of ERK (Cisbio HTRF pERK), H727 cells; format: cell-based; conditions: Homo sapiens, NCI-H727, H727 cells; HTRF pERK
In short: as §2

[15] = system: KRas-mediated phosphorylation of ERK in HCT116 cells; assay: Inhibition of KRas-mediated phosphorylation of ERK (Cisbio HTRF pERK), HCT116 cells; format: cell-based; conditions: Homo sapiens; for IC50: HCT-116, HTRF pERK; for inhibition at 0.1 µM: HCT-116, 3 h, single point, 100 nM compound, 3 hrs
In short: as §1

[16] = system: KRas-mediated phosphorylation of ERK in H460 cells; assay: Inhibition of KRas-mediated phosphorylation of ERK (Cisbio HTRF pERK), H460 cells; format: cell-based; conditions: Homo sapiens; for IC50: NCI-H460, HTRF pERK; for inhibition at 0.1 µM: NCI-H460, 3 h, single point, 100 nM compound, 3 hrs
In short: as §2

T9 sequence (P01116 1-169 isoform P01116-2 G12S): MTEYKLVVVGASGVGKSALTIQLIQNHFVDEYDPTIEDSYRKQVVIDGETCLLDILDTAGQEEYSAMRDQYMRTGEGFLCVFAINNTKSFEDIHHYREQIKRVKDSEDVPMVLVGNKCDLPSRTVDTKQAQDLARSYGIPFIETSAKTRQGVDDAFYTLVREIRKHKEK
T5 sequence (P01116 1-169 isoform P01116-2 G13D): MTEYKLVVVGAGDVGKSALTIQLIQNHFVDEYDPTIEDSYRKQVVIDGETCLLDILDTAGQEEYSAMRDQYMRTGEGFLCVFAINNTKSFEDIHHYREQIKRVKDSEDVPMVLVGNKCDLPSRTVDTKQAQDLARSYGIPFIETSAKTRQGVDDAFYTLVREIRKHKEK
T4 sequence (P01116 1-169 isoform P01116-2 G12V): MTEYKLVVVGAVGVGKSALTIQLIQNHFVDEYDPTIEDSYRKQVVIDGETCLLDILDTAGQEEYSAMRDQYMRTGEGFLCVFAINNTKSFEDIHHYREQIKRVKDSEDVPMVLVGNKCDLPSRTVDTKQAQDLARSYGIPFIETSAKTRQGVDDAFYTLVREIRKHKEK
T1 sequence (P01116 1-169 isoform P01116-2): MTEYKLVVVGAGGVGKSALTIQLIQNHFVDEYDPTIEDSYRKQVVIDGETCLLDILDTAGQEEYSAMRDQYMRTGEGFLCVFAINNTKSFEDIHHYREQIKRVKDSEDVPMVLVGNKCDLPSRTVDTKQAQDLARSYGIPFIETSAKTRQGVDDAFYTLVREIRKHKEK
T3 sequence (P01116 1-169 isoform P01116-2 Q61H): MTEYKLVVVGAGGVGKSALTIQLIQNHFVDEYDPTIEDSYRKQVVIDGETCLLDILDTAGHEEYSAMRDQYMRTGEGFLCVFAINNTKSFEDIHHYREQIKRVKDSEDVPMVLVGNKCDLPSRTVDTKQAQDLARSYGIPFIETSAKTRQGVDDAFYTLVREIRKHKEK
T6 sequence (P01116 1-169 isoform P01116-2 G12D): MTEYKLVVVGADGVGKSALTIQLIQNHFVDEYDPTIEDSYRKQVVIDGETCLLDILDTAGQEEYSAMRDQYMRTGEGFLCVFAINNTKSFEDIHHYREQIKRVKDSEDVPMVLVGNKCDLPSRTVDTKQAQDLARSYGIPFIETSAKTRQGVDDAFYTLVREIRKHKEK
T7 sequence (P01116 1-169 isoform P01116-2 G12A): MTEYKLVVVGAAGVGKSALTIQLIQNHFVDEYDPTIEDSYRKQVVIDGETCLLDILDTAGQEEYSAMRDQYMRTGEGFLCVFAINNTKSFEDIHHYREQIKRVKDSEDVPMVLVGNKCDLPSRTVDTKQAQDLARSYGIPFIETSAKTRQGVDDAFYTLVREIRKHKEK
T8 sequence (P01116 1-169 isoform P01116-2 G12C): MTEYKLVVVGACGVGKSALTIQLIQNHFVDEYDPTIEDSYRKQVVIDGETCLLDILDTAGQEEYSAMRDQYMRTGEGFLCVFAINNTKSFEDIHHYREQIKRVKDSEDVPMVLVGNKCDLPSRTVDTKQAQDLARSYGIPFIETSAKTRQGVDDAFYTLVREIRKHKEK
T2 sequence (P01116 1-169 isoform P01116-2 G12R): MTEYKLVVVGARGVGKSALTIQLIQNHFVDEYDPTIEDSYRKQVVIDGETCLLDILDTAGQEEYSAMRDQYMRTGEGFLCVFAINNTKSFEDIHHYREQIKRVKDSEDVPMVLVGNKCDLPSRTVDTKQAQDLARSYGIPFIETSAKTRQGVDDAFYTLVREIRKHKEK

SMILES	IC50 [1] [nM]	IC50 [2] [nM]	IC50 [3] [nM]	IC50 [4] [nM]	IC50 [5] [nM]	IC50 [6] [nM]	IC50 [7] [nM]	IC50 [8] [nM]	IC50 [9] [nM]	IC50 [10] [nM]	IC50 [11] [nM]	IC50 [12] [nM]	IC50 [13] [nM]	IC50 [14] [nM]	IC50 [15] [nM]	inhibition at 0.01 µM [1] [%]	inhibition at 0.01 µM [3] [%]	inhibition at 0.01 µM [5] [%]	inhibition at 0.01 µM [11] [%]	inhibition at 0.01 µM [12] [%]	further results
Oc1cc(Cl)c(C2CC2)c(-c2ncc3c(N4CCC[C@]5(C4)C[C@H](O)C5)nc(OCC45CCCN4CCC5)nc3c2F)c1 [Example 742, (2s,4r)-6-(7-(3-chloro-2-cyclopropyl-5-hydroxyphenyl)-8-fluoro-2-((tetrahydro-1H-pyrrolizin-7a(5H)-yl)methoxy)pyrido[4,3-d]pyrimidin-4-yl)-6-azaspiro[3.5]nonan-2-ol]	3	< 2	< 2	< 2	3	< 2	2610	1600	624	> 10000	< 2	< 2	2	292	1790						
CCc1c(F)ccc2cc(O)cc(-c3ncc4c(N5CCC[C@@](C)(O)C5)nc(OC[C@@]56CCCN5[C@H](COC(=O)N5CCCC5)CC6)nc4c3F)c12 [Example 719, ((3S,7aS)-7a-(((7-(8-ethyl-7-fluoro-3-hydroxynaphthalen-1-yl)-8-fluoro-4-((R)-3-hydroxy-3-methylpiperidin-1-yl)pyrido[4,3-d]pyrimidin-2-yl)oxy)methyl)hexahydro-1H-pyrrolizin-3-yl)methyl pyrrolidine-1-carboxylate]		< 2		< 2		< 2	7	7	1	518				23	23	96	98	98	95	97	inhibition at 0.01 µM [13]: 97%; IC50 [16]: 8 nM
CCc1c(F)ccc2cc(O)cc(-c3ncc4c(N5CCC[C@@](C)(O)C5)nc(OC[C@@]56CCCN5[C@H](COC(=O)NC(C)C)CC6)nc4c3F)c12 [Example 718, ((3S,7aS)-7a-(((7-(8-ethyl-7-fluoro-3-hydroxynaphthalen-1-yl)-8-fluoro-4-((R)-3-hydroxy-3-methylpiperidin-1-yl)pyrido[4,3-d]pyrimidin-2-yl)oxy)methyl)hexahydro-1H-pyrrolizin-3-yl)methyl isopropylcarbamate]		< 2		< 2		< 2	37	17	2	1100				43	58	94	96	95	94	96	inhibition at 0.01 µM [13]: 94%; IC50 [16]: 29 nM
CCc1c(F)ccc2cc(O)cc(-c3ncc4c(N5CCC[C@@](C)(O)C5)nc(OC[C@@]56CCCN5[C@H](COC(=O)NC)CC6)nc4c3F)c12 [Example 706, ((3S,7aS)-7a-(((7-(8-ethyl-7-fluoro-3-hydroxynaphthalen-1-yl)-8-fluoro-4-((R)-3-hydroxy-3-methylpiperidin-1-yl)pyrido[4,3-d]pyrimidin-2-yl)oxy)methyl)hexahydro-1H-pyrrolizin-3-yl)methyl methylcarbamate]		2		< 2		3	112	45	9	2780				83	85	84	88	89	82	89	inhibition at 0.01 µM [13]: 85%; IC50 [16]: 39 nM
Cc1cc2[nH]ncc2c(-c2ncc3c(N4CCCC5(C4)NC(=O)NC5=O)nc(OCC45CCCN4CCC5)nc3c2F)c1C (stereo not drawn) [Example 728, 7-(7-(5,6-dimethyl-1H-indazol-4-yl)-8-fluoro-2-((hexahydro-1H-pyrrolizin-7a-yl)methoxy)pyrido[4,3-d]pyrimidin-4-yl)-1,3,7-triazaspiro[4.5]decane-2,4-dione]	34	34	40	23	37	60		2510	> 10000	> 10000	35	31	31	2510							
CCc1c(F)ccc2cc(O)cc(-c3ncc4c(N5CCC(O)C(F)(F)CC5)nc(OC[C@@]56CCCN5C[C@H](F)C6)nc4c3F)c12 (stereo partly drawn) [Example 586, 1-(7-(8-ethyl-7-fluoro-3-hydroxynaphthalen-1-yl)-8-fluoro-2-(((2R,7aS)-2-fluorotetrahydro-1H-pyrrolizin-7a(5H)-yl)methoxy)pyrido[4,3-d]pyrimidin-4-yl)-5,5-difluoroazepan-4-ol]		4		3		6	65	94	25	3770				85		91	90	93	91	93	inhibition at 0.01 µM [13]: 93%; inhibition at 0.1 µM [15]: 42%; inhibition at 0.1 µM [16]: 56%
CN(C)C(=O)c1cc2n(n1)CCCN(c1nc(OCC34CCCN3CCC4)nc3c(F)c(-c4c(C5CC5)c(Cl)cc5[nH]ncc45)ncc13)C2 [Example 881, 5-(7-(6-chloro-5-cyclopropyl-1H-indazol-4-yl)-8-fluoro-2-((tetrahydro-1H-pyrrolizin-7a(5H)-yl)methoxy)pyrido[4,3-d]pyrimidin-4-yl)-N,N-dimethyl-5,6,7,8-tetrahydro-4H-pyrazolo[1,5-a][1,4]diazepine-2-carboxamide]	22	11	22	4	25	2		> 10000	> 10000	> 10000	14	7	7	> 10000							
CN(C)C(=O)c1cc2n(n1)CCCN(c1nc(OC[C@@]34CCCN3C[C@H](F)C4)nc3c(F)c(-c4c5ccccc5cc5[nH]ncc45)ncc13)C2 [Example 761, 5-(7-(1H-benzo[f]indazol-4-yl)-8-fluoro-2-(((2R,7aS)-2-fluorohexahydro-1H-pyrrolizin-7a-yl)methoxy)pyrido[4,3-d]pyrimidin-4-yl)-N,N-dimethyl-5,6,7,8-tetrahydro-4H-pyrazolo[1,5-a][1,4]diazepine-2-carboxamide]	106	74	151	23	177	8		4320	> 10000	> 10000	65	41	33	1280							inhibition at 0.1 µM [15]: -13%; inhibition at 0.1 µM [16]: 11%
